In patent US8445408B2, “Pyrimidine derivatives and their use for controlling undesired plant growth” (Bayer Cropscience AG, priority 2008, dated 2013):

How the values were obtained:
Veronica persica [1] = assay: Pre-emergence herbicidal effect; type: in vivo; settings: Dosage 320 (0.32 kg active substance per hectare); visual scoring after 3 weeks vs untreated controls; 100% = plants have died
Source text: (§1) Seeds of monocotyledonous or dicotyledonous weed plants or crop plants are planted in wood-fiber pots in sandy loam and covered with earth. The compounds according to the invention, formulated in the form of wettable powders (WP) or as emulsion concentrates (EC), are then applied as aqueous suspension or emulsion at a water application rate of 600 to 800 I/ha (converted) with the addition of 0.2% of wetting agent to the surface of the covering earth. Following the treatment, the pots are placed in a greenhouse and kept under good growth conditions for the test plants. The visual scoring of the damage on the test plants is carried out after an experiment time of 3 weeks in comparison with untreated controls (herbicidal effect in percent (%): 100% effect=plants have died, 0% effect=as control plants). [table]

Amaranthus retroflexus [2] = assay: Pre-emergence herbicidal effect; type: in vivo; settings: Dosage 320 (0.32 kg active substance per hectare); visual scoring after 3 weeks vs untreated controls; 100% = plants have died
Source text: as §1

Polygonum convolvulus [3] = assay: Pre-emergence herbicidal effect; type: in vivo; settings: Dosage 320 (0.32 kg active substance per hectare); visual scoring after 3 weeks vs untreated controls; 100% = plants have died
Source text: as §1

Chenopodium album = assay: Post-emergence herbicidal effect; type: in vivo; settings: Dosage 320 (0.32 kg active substance per hectare); treated in one-leaf stage; visual scoring after ca. 3 weeks vs untreated controls; 100% = plants have died
Description: (§2) [table] 2. Post-emergence herbicidal effect and crop plant compatibility Seeds of monocotyledonous or dicotyledonous weed plants or crop plants are planted in wood-fiber pots in sandy loam, covered with earth and grown in a greenhouse under good growth conditions. 2 to 3 weeks after sowing, the test plants are treated in the one-leaf stage. The compounds according to the invention, formulated in the form of wettable powders (WP) or as emulsion concentrates (EC), are then sprayed onto the green plant parts as aqueous suspension or emulsion at a water application rate of 600 to 800 I/ha (converted) with the addition of 0.2% of wetting agent. After ca. 3 weeks' standing time of the test plants in the greenhouse under optimum growth conditions, the effect of the preparations is scored visually in comparison with untreated controls (herbicidal effect in percent (%): 100% effect=plants have died, 0% effect=as control plants).

Veronica persica [4] = assay: Post-emergence herbicidal effect; type: in vivo; settings: Dosage 320 (0.32 kg active substance per hectare); treated in one-leaf stage; visual scoring after ca. 3 weeks vs untreated controls; 100% = plants have died
Description: as §2

Amaranthus retroflexus [5] = assay: Post-emergence herbicidal effect; type: in vivo; settings: Dosage 320 (0.32 kg active substance per hectare); treated in one-leaf stage; visual scoring after ca. 3 weeks vs untreated controls; 100% = plants have died
Description: as §2

Matricaria inodora [6] = assay: Post-emergence herbicidal effect; type: in vivo; settings: Dosage 320 (0.32 kg active substance per hectare); treated in one-leaf stage; visual scoring after ca. 3 weeks vs untreated controls; 100% = plants have died
Description: as §2

Abutilon theophrasti = assay: Post-emergence herbicidal effect; type: in vivo; settings: Dosage 320 (0.32 kg active substance per hectare); treated in one-leaf stage; visual scoring after ca. 3 weeks vs untreated controls; 100% = plants have died
Description: as §2

Cyperus esculentus = assay: Pre-emergence herbicidal effect; type: in vivo; settings: Dosage 320 (0.32 kg active substance per hectare); visual scoring after 3 weeks vs untreated controls; 100% = plants have died
Source text: as §1

Lolium multiflorum [7] = assay: Pre-emergence herbicidal effect; type: in vivo; settings: Dosage 320 (0.32 kg active substance per hectare); visual scoring after 3 weeks vs untreated controls; 100% = plants have died
Source text: as §1

Setaria viridis [8] = assay: Pre-emergence herbicidal effect; type: in vivo; settings: Dosage 320 (0.32 kg active substance per hectare); visual scoring after 3 weeks vs untreated controls; 100% = plants have died
Source text: as §1

Alopecurus myosuroides = assay: Pre-emergence herbicidal effect; type: in vivo; settings: Dosage 320 (0.32 kg active substance per hectare); visual scoring after 3 weeks vs untreated controls; 100% = plants have died
Source text: as §1

[9] = logp (HCOOH), chemicophysical data; settings: HCOOH (formic acid)
Pharbitis purpurea = assay: Post-emergence herbicidal effect; type: in vivo; settings: Dosage 320 (0.32 kg active substance per hectare); treated in one-leaf stage; visual scoring after ca. 3 weeks vs untreated controls; 100% = plants have died
Description: as §2

Echinochloa crus-galli [10] = assay: Post-emergence herbicidal effect; type: in vivo; settings: Dosage 320 (0.32 kg active substance per hectare); treated in one-leaf stage; visual scoring after ca. 3 weeks vs untreated controls; 100% = plants have died
Description: as §2

Viola tricolor [11] = assay: Post-emergence herbicidal effect; type: in vivo; settings: Dosage 320 (0.32 kg active substance per hectare); treated in one-leaf stage; visual scoring after ca. 3 weeks vs untreated controls; 100% = plants have died
Description: as §2

Polygonum convolvulus [12] = assay: Post-emergence herbicidal effect; type: in vivo; settings: Dosage 320 (0.32 kg active substance per hectare); treated in one-leaf stage; visual scoring after ca. 3 weeks vs untreated controls; 100% = plants have died
Description: as §2

Setaria viridis [13] = assay: Post-emergence herbicidal effect; type: in vivo; settings: Dosage 320 (0.32 kg active substance per hectare); treated in one-leaf stage; visual scoring after ca. 3 weeks vs untreated controls; 100% = plants have died
Description: as §2

Echinochloa crus-galli [14] = assay: Pre-emergence herbicidal effect; type: in vivo; settings: Dosage 320 (0.32 kg active substance per hectare); visual scoring after 3 weeks vs untreated controls; 100% = plants have died
Source text: as §1

Stellaria media [15] = assay: Pre-emergence herbicidal effect; type: in vivo; settings: Dosage 320 (0.32 kg active substance per hectare); visual scoring after 3 weeks vs untreated controls; 100% = plants have died
Source text: as §1

Viola tricolor [16] = assay: Pre-emergence herbicidal effect; type: in vivo; settings: Dosage 320 (0.32 kg active substance per hectare); visual scoring after 3 weeks vs untreated controls; 100% = plants have died
Source text: as §1

Matricaria inodora [17] = assay: Pre-emergence herbicidal effect; type: in vivo; settings: Dosage 320 (0.32 kg active substance per hectare); visual scoring after 3 weeks vs untreated controls; 100% = plants have died
Source text: as §1

Stellaria media [18] = assay: Post-emergence herbicidal effect; type: in vivo; settings: Dosage 320 (0.32 kg active substance per hectare); treated in one-leaf stage; visual scoring after ca. 3 weeks vs untreated controls; 100% = plants have died
Description: as §2

Lolium multiflorum [19] = assay: Post-emergence herbicidal effect; type: in vivo; settings: Dosage 320 (0.32 kg active substance per hectare); treated in one-leaf stage; visual scoring after ca. 3 weeks vs untreated controls; 100% = plants have died
Description: as §2

SMILES | Pre-emergence herbicidal effect VERPE (Veronica persica [1]) [%] | Pre-emergence herbicidal effect AMARE (Amaranthus retroflexus [2]) [%] | Pre-emergence herbicidal effect POLCO (Polygonum convolvulus [3]) [%] | Post-emergence herbicidal effect VERPE (Veronica persica [4]) [%] | Post-emergence herbicidal effect AMARE (Amaranthus retroflexus [5]) [%] | Post-emergence herbicidal effect ABUTH (Abutilon theophrasti) [%] | Pre-emergence herbicidal effect LOLMU (Lolium multiflorum [7]) [%] | Pre-emergence herbicidal effect SETVI (Setaria viridis [8]) [%] | Pre-emergence herbicidal effect ALOMY (Alopecurus myosuroides) [%] | Post-emergence herbicidal effect PHBPU (Pharbitis purpurea) [%] | Post-emergence herbicidal effect ECHCG (Echinochloa crus-galli [10]) [%] | Post-emergence herbicidal effect VIOTR (Viola tricolor [11]) [%] | Pre-emergence herbicidal effect ECHCG (Echinochloa crus-galli [14]) [%] | Pre-emergence herbicidal effect VIOTR (Viola tricolor [16]) [%] | further results
Cc1cc(C)c2c(c1)C(Nc1cc(C(F)(F)F)nc(N)n1)CCC2 (racemic) [Example 1.17] | 100 | 100 | – | – | – | – | – | – | – | – | – | – | – | – | –
Nc1nc(NC2CCc3ccccc32)cc(C(F)(F)F)n1 (racemic) [Example 1.18] | 100 | 100 | 100 | – | – | – | – | – | – | – | – | – | – | – | –
Cc1ccc2c(c1)C(Nc1cc(C(F)(F)F)nc(N)n1)C(C)C2 (racemic) [Example 1.31] | – | – | 100 | 90 | 100 | 90 | 80 | 100 | 100 | – | – | – | – | – | Post-emergence herbicidal effect CHEAL (Chenopodium album): 80%; Post-emergence herbicidal effect MATIN (Matricaria inodora [6]): 90%; Pre-emergence herbicidal effect CYPES (Cyperus esculentus): 100%
Cc1ccc2c(c1)[C@H](Nc1cc(C(F)(F)F)nc(N)n1)[C@@H](C)C2 [Example 1.27, N4-[(1R,2S)-2,6-dimethyl-2,3-dihydro-1H-inden-1-yl]-6-(trifluoromethyl)pyrimidine-2,4-diamine] | 100 | 100 | 100 | 85 | 100 | 90 | 80 | 100 | – | 85 | 85 | 85 | 100 | 100 | chromatographic logP [9]: 2.77; Post-emergence herbicidal effect POLCO (Polygonum convolvulus [12]): 80%; Post-emergence herbicidal effect SETVI (Setaria viridis [13]): 80%; Pre-emergence herbicidal effect STEME (Stellaria media [15]): 100%; Pre-emergence herbicidal effect MATIN (Matricaria inodora [17]): 100%
Cc1ccc2c(c1)[C@H](Nc1cc(C(F)F)nc(N)n1)[C@@H](C)C2 [Example 1.30] | 100 | 100 | 100 | 90 | 95 | 85 | 100 | 100 | 100 | 90 | 87 | 85 | 100 | 100 | Post-emergence herbicidal effect STEME (Stellaria media [18]): 80%; Post-emergence herbicidal effect LOLMU (Lolium multiflorum [19]): 80%; Post-emergence herbicidal effect SETVI (Setaria viridis [13]): 80%; Pre-emergence herbicidal effect STEME (Stellaria media [15]): 100%; Pre-emergence herbicidal effect MATIN (Matricaria inodora [17]): 100%
Nc1nc(N[C@@H]2CCCc3ccccc32)cc(C(F)F)n1 [Example 1.35] | 100 | 100 | 100 | – | 90 | – | 100 | 90 | 80 | 80 | – | 80 | 80 | 100 | –
Nc1nc(N[C@@H]2CCc3ccccc32)cc(C(F)F)n1 [Example 1.36] | – | – | – | 90 | 100 | 80 | – | – | – | 80 | 90 | 90 | – | – | Post-emergence herbicidal effect LOLMU (Lolium multiflorum [19]): 90%
Cc1ccc2c(c1)[C@H](Nc1cc(Cl)nc(N)n1)[C@@H](C)C2 [Example 1.42] | 100 | 100 | 100 | 80 | 100 | – | – | 100 | 100 | 100 | 90 | 90 | 100 | 100 | Post-emergence herbicidal effect POLCO (Polygonum convolvulus [12]): 80%; Post-emergence herbicidal effect SETVI (Setaria viridis [13]): 80%; Pre-emergence herbicidal effect STEME (Stellaria media [15]): 100%; Pre-emergence herbicidal effect MATIN (Matricaria inodora [17]): 100%
Nc1nc(Cl)cc(N[C@@H]2CCc3ccccc32)n1 [Example 1.44] | 100 | 100 | 100 | – | – | – | – | – | – | – | – | – | – | 100 | –
N#Cc1c(N[C@@H]2CCCc3ccccc32)nc(N)nc1-c1ccccc1 [Example 1.53, 2-Amino-4-phenyl-6-[(1R)-1,2,3,4-tetrahydronaphthalen-1-ylamino]pyrimidine-5-carbonitrile] | – | – | – | – | – | – | – | – | – | – | – | – | – | – | chromatographic logP [9]: 2.87
Nc1ncc(C(F)(F)F)c(N[C@@H]2CCCc3ccccc32)n1 [Example 1.60, N4-[(1R)-1,2,3,4-tetrahydronaphthalen-1-yl]-5-(trifluoromethyl)pyrimidine-2,4-diamine] | – | – | – | – | – | – | – | – | – | – | – | – | – | – | melting point: 120 to 121 °C
